What was measured:
Experiment in all cases: Postemergence glyphosate tolerance, visual injury
Assay type in all cases: in vivo, Arabidopsis thaliana
[1] = tested on: Arabidopsis transformed with TraP12 v2::dgt-14 (pDAB105528); details: for Visual % injury (Ave): 2 weeks after application
Description: (§1) Transgenic T1 Arabidopsis plants containing the dgt-14 transgene were sprayed with differing rates of glyphosate. A distribution of varying concentrations of glyphosate rates, including elevated rates, were applied in this study to determine the relative levels of resistance (105, 420, 1,680 or 3,360 g ae/ha). The typical 1× field usage rate of glyphosate is 1,120 g ae/ha. The T1 Arabidopsis plants that were used in this study were variable in copy number for the dgt-14 transgene. The low copy dgt-14 T1 Arabidopsis plants were identified using the molecular confirmation assays described above, and self-pollinated and used to produce T2 plants.
(§2) The Arabidopsis T1 transformants were first selected from the background of untransformed seed using a glufosinate selection scheme. Three flats or 30,000 seed were analyzed for each T1 construct. The T1 plants selected above were molecularly characterized and the plants were subsequently transplanted to individual pots and sprayed with various rates of commercial glyphosate as previously described. The dose response of these plants is presented in terms of % visual injury 2 weeks after treatment (WAT). […] An arithmetic mean and standard deviation is presented for each construct used for Arabidopsis transformation. The range in individual response is also indicated in the last column for each rate and transformation. Wildtype, non-transformed Arabidopsis (c.v. Columbia) served as a glyphosate sensitive control.
(§3) Selected T1 Arabidopsis plants which were identified to contain low-copy numbers of transgene insertions (1-3 copies) were self-fertilized to produce a second generation for additional assessment of glyphosate tolerance. […] In the T2 generation hemizygous and homozygous plants were available for testing for each event and therefore were included for each rate of glyphosate tested. Hemizygous plants contain two different alleles at a locus as compared to homozygous plants which contain the same two alleles at a locus. The copy number and ploidy levels of the T2 plants were confirmed using the molecular analysis protocols previously described. Likewise, glyphosate was applied using the methods and rates as previously described. The dose response of the plants is presented in terms of % visual injury 2 weeks after treatment (WAT). […] An arithmetic mean and standard deviation are presented for each construct used for Arabidopsis transformation. The range in individual response is also indicated in the last column for each rate and transformation. Wildtype, non-transformed Arabidopsis (cv. Columbia) served as a glyphosate sensitive control. In addition, plants comprising a glyphosate herbicide resistance gene, dgt-1 (as described in U.S. patent Ser. No. 12/558,351, incorporated herein by reference in its entirety) were included as a positive control.
(§4) Randomly selected T2 Arabidopsis plants which were identified to contain low-copy numbers of transgene insertions (1-3 copies) were self-fertilized to produce a third generation for additional assessment of glyphosate tolerance. Arabidopsis seed from the third generation (T3) were planted and evaluated for glyphosate tolerance using the same protocols as previously described. […] These Events were assayed via LC-MS-MS to confirm that the plants expressed the DGT-14 protein. […] Exemplary resistant T3 Events comprised dgt-14 linked with TraP8 v2 (pDAB105526), TraP9 v2 (pDAB105527), TraP12 v2 (pDAB105528) and TraP13 v2 (pDAB105529).

[2] = tested on: Arabidopsis transformed with TraP13 v2::dgt-14 (pDAB105529); details: for Visual % injury (Ave): 2 weeks after application
Description: as §1, §2, §3, §4

[3] = tested on: Arabidopsis transformed with TraP4 v5::dgt-14 (pDAB107526); details: 2 weeks after application
Description: as §1, §2, §3, §4

[4] = tested on: Arabidopsis transformed with TraP5 v2::dgt-14 (pDAB105525); details: 2 weeks after application
Description: as §1, §2, §3, §4

[5] = tested on: Arabidopsis transformed with TraP8 v2::dgt-14 (pDAB105526); details: for Visual % injury (Ave): 2 weeks after application
Description: as §1, §2, §3, §4

[6] = tested on: Arabidopsis transformed with TraP9 v2::dgt-14 (pDAB105527); details: for Visual % injury (Ave): 2 weeks after application
Description: as §1, §2, §3, §4

[7] = tested on: Arabidopsis with dgt-1 (pDAB3759), T2 segregating population; details: 2 weeks after application
Description: as §1, §2, §3, §4

[8] = T2, all concentrations of glyphosate tested
[9] = T3, all concentrations of glyphosate tested

## O=C(O)CNCP(=O)(O)O [glyphosate, N-(phosphonomethyl)glycine]
[1]; T1, 105 g ae/ha
  Visual % injury (Ave): 6.0%
[1]; T1, 420 g ae/ha
  Visual % injury (Ave): 11.0%
[1]; T1, 1680 g ae/ha
  Visual % injury (Ave): 20.4%
[1]; T1, 3360 g ae/ha
  Visual % injury (Ave): 19.0%
[1]; T2, 420 g ae/ha
  Visual % injury (Ave): 1.8%
[1]; T2, 1680 g ae/ha
  Visual % injury (Ave): 2.0%
[1]; T2, 3360 g ae/ha
  Visual % injury (Ave): 3.8%
[1]; [8]
  injury range: less than 20%
[1]; T3, 420 g ae/ha
  Visual % injury (Ave): 0.0%
[1]; T3, 1680 g ae/ha
  Visual % injury (Ave): 2.5%
[1]; T3, 3360 g ae/ha
  Visual % injury (Ave): 4.8%
[1]; [9]
  injury range: less than 20%
[2]; T1, 105 g ae/ha
  Visual % injury (Ave): 34.5%
[2]; T1, 420 g ae/ha
  Visual % injury (Ave): 21.3%
[2]; T1, 1680 g ae/ha
  Visual % injury (Ave): 27.0%
[2]; T1, 3360 g ae/ha
  Visual % injury (Ave): 32.8%
[2]; T2, 420 g ae/ha
  Visual % injury (Ave): 0%
[2]; T2, 1680 g ae/ha
  Visual % injury (Ave): 1.8%
[2]; T2, 3360 g ae/ha
  Visual % injury (Ave): 3.8%
[2]; [8]
  injury range: less than 20%
[2]; T3, 420 g ae/ha
  Visual % injury (Ave): 0.0%
[2]; T3, 1680 g ae/ha
  Visual % injury (Ave): 0.0%
[2]; T3, 3360 g ae/ha
  Visual % injury (Ave): 1.8%
[2]; [9]
  injury range: less than 20%
[3]; T1, 105 g ae/ha
  Visual % injury (Ave): 85.8%
[3]; T1, 420 g ae/ha
  Visual % injury (Ave): 91.0%
[3]; T1, 1680 g ae/ha
  Visual % injury (Ave): 96.5%
[3]; T1, 3360 g ae/ha
  Visual % injury (Ave): 95.8%
[3]; T2, 420 g ae/ha
  Visual % injury (Ave): 85.0%
[3]; T2, 840 g ae/ha
  Visual % injury (Ave): 87.5%
[3]; T2, 1680 g ae/ha
  Visual % injury (Ave): 92.5%
[3]; T2, 3360 g ae/ha
  Visual % injury (Ave): 95.0%
[4]; T1, 105 g ae/ha
  Visual % injury (Ave): 93.0%
[4]; T1, 420 g ae/ha
  Visual % injury (Ave): 98.6%
[4]; T1, 1680 g ae/ha
  Visual % injury (Ave): 98.0%
[4]; T1, 3360 g ae/ha
  Visual % injury (Ave): 96.0%
[4]; T2, 420 g ae/ha
  Visual % injury (Ave): 86.3%
[4]; T2, 1680 g ae/ha
  Visual % injury (Ave): 90.0%
[4]; T2, 3360 g ae/ha
  Visual % injury (Ave): 97.0%
[4]; T3, 420 g ae/ha
  Visual % injury (Ave): 93.3%
[4]; T3, 1680 g ae/ha
  Visual % injury (Ave): 93.0%
[4]; T3, 3360 g ae/ha
  Visual % injury (Ave): 91.7%
[5]; T1, 105 g ae/ha
  Visual % injury (Ave): 40.0%
[5]; T1, 420 g ae/ha
  Visual % injury (Ave): 23.8%
[5]; T1, 1680 g ae/ha
  Visual % injury (Ave): 66.3%
[5]; T1, 3360 g ae/ha
  Visual % injury (Ave): 26.5%
[5]; T2, 420 g ae/ha
  Visual % injury (Ave): 0.5%
[5]; T2, 840 g ae/ha
  Visual % injury (Ave): 0.0%
[5]; T2, 1680 g ae/ha
  Visual % injury (Ave): 2.5%
[5]; T2, 3360 g ae/ha
  Visual % injury (Ave): 5.0%
[5]; [8]
  injury range: less than 20%
[5]; T3, 420 g ae/ha
  Visual % injury (Ave): 0.0%
[5]; T3, 840 g ae/ha
  Visual % injury (Ave): 1.3%
[5]; T3, 1680 g ae/ha
  Visual % injury (Ave): 0.0%
[5]; T3, 3360 g ae/ha
  Visual % injury (Ave): 4.0%
[5]; [9]
  injury range: less than 20%
[6]; T1, 105 g ae/ha
  Visual % injury (Ave): 23.0%
[6]; T1, 420 g ae/ha
  Visual % injury (Ave): 37.5%
[6]; T1, 1680 g ae/ha
  Visual % injury (Ave): 48.8%
[6]; T1, 3360 g ae/ha
  Visual % injury (Ave): 63.8%
[6]; T2, 420 g ae/ha
  Visual % injury (Ave): 0.0%
[6]; T2, 1680 g ae/ha
  Visual % injury (Ave): 1.8%
[6]; T2, 3360 g ae/ha
  Visual % injury (Ave): 17.5%
[6]; [8]
  injury range: less than 20%
[6]; T3, 420 g ae/ha
  Visual % injury (Ave): 0.0%
[6]; T3, 1680 g ae/ha
  Visual % injury (Ave): 0.0%
[6]; T3, 3360 g ae/ha
  Visual % injury (Ave): 4.3%
[6]; [9]
  injury range: less than 20%
[7]; T1 study, 105 g ae/ha
  Visual % injury (Ave): 40.0%
[7]; T1 study, 420 g ae/ha
  Visual % injury (Ave): 30.0%
[7]; T1 study, 1680 g ae/ha
  Visual % injury (Ave): 55.0%
[7]; T1 study, 3360 g ae/ha
  Visual % injury (Ave): 57.5%
[7]; T2 study, 420 g ae/ha
  Visual % injury (Ave): 40.0%
[7]; T2 study, 840 g ae/ha
  Visual % injury (Ave): 47.5%
[7]; T2 study, 1680 g ae/ha
  Visual % injury (Ave): 41.3%
[7]; T2 study, 3360 g ae/ha
  Visual % injury (Ave): 35.0%
[7]; T3 study, 420 g ae/ha
  Visual % injury (Ave): 42.5%
[7]; T3 study, 840 g ae/ha
  Visual % injury (Ave): 40.0%
[7]; T3 study, 1680 g ae/ha
  Visual % injury (Ave): 47.5%
[7]; T3 study, 3360 g ae/ha
  Visual % injury (Ave): 77.5%
